Experimental data published in PMC2267855, “Site-directed mutagenesis of Arginine282 suggests how protons and peptides are co-transported by rabbit PepT1” (The International Journal of Biochemistry & Cell Biology, 2008).
Positions count from the first letter of the chain named.

Legend:
Type in all cases: cell-based, rabbit
R282E-PepT1 [1] = target: T1, R282E-PepT1 (Oryctolagus cuniculus, UniProt P36836, R282E); assay: Accumulation of [3H]-D-Phe-L-Gln above the extracellular concentration by oocytes expressing R282E-PepT1; details: R282E-PepT1, pHout 7.4, 24 h incubation
T1 construct: expressed in transfected cells; host or cells: Xenopus laevis oocytes injected with cRNA
T1 sequence (P36836 1-707 R282E): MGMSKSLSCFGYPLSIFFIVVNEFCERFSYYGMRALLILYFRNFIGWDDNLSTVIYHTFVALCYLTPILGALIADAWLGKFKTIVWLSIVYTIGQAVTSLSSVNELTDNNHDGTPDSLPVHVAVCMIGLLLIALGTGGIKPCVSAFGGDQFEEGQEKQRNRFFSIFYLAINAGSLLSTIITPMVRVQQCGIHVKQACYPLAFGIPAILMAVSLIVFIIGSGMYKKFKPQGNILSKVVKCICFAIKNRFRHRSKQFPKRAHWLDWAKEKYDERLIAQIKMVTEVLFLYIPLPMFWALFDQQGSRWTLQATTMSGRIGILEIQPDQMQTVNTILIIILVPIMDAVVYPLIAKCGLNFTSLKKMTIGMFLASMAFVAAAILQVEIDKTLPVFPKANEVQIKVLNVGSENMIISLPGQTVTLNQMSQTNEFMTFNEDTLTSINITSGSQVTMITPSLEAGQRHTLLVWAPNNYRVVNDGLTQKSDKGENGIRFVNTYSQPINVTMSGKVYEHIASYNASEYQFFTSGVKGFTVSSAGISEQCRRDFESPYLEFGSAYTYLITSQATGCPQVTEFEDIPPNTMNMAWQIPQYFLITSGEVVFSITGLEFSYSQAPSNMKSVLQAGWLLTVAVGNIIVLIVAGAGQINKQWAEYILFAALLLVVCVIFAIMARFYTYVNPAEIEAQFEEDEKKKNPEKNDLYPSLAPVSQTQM
Procedure: Zero-trans uptake of [^3H]-D-Phe-L-Gln (17.4 Ci/mmole, custom synthesised, Cambridge Research Biochemicals, Stockton-on-Tees, UK) was performed as previously described ([Meredith, 2004]). Briefly, 5 oocytes were incubated in 100 μl of uptake medium (95 mM NaCl, 2 mM KCl, 1 mM CaCl2, 0.42 mM MgCl2, 10 mM Tris/Hepes pH 7.4 or Tris/Mes pH 5.5) with tracer (0.4 μM) [^3H]-D-Phe-L-Gln. After incubation, the oocytes were washed sequentially five times in 1 ml of ice-cold 120 mM NaCl solution, lysed individually with 100 μl 2% (w/v) SDS and liquid scintillation counted. As a control non-injected oocytes were also incubated in uptake medium with [^3H]-D-Phe-L-Gln as above.

R282E-PepT1 [2] = target: T1, R282E-PepT1; assay: Apparent charge:peptide stoichiometry (two-electrode voltage clamp current / radiolabelled uptake), R282E-PepT1; details: R282E-PepT1, pHout 5.5, resting membrane potential
Procedure: (§1) Measurements of membrane potential were made by impaling oocytes with a single glass microelectrode (Intra 767 amplifier, WPI, Stevenage, Hertfordshire, UK) perfused in uptake medium (as above) with or without 0.4 μM D-Phe-L-Gln (synthesised in house), 0.6 mM Gly-L-Gln (Sigma, Poole, UK) or 10 mM 4-aminobenzoic acid (4-AMBA, Sigma). Two-electrode voltage clamp (TEVC) was performed by placing oocytes in a 0.1 ml recording chamber and perfusing with uptake solution (pH 5.5 or 7.4) at a rate of 15 ml/min. Oocytes were impaled by two agarose-cushioned microelectrodes filled with 3 M KCl (0.5–2.0 MΩ) and voltage-clamped at −60 mV using a Geneclamp 500B amplifier and PCLAMP 8.1 software (Axon Instruments, CA, USA). The holding potential was stepped from −60 mV over the range of −150 to +50 mV in 10 mV steps, each pulse lasting 100 ms, and returning to −60 mV in between test voltage pulses. Typically traces were filtered at 1 kHz during recording and digitized at 0.5–5 kHz using the DigiData 1200 interface (Axon Instruments, CA, USA). All experiments were carried out at room temperature.
(§2) In order to calculate the apparent charge:substrate stoichiometry, the peptide induced current that was measured by two-electrode voltage clamp at the oocyte resting membrane potential was divided by the radiolabelled dipeptide uptake in oocytes from the same preparation. […]

R282A-PepT1 = target: T2, R282A-PepT1 (Oryctolagus cuniculus, UniProt P36836, R282A); assay: Apparent charge:peptide stoichiometry (two-electrode voltage clamp current / radiolabelled uptake), R282A-PepT1; details: R282A-PepT1, pHout 5.5, resting membrane potential
T2 construct: expressed in transfected cells; host or cells: Xenopus laevis oocytes injected with cRNA
T2 sequence (P36836 1-707 R282A): T1 sequence (P36836 1-707 R282E) with E282A
Procedure: as §1, §2

NC(=O)CC[C@H](NC(=O)[C@H](N)Cc1ccccc1)C(=O)O [D-Phe-L-Gln]
accumulation above extracellular concentration (R282E-PepT1 [1]): 2.3 ± 0.4 -fold | apparent stoichiometry (charge:peptide), normalised to wild-type 1:1 (R282E-PepT1 [2]): 4 | apparent stoichiometry (charge:peptide), normalised to wild-type 1:1 (R282A-PepT1): 5
